In brackets after ≈: the same amount, converted by molar mass.
Legend:
[1] = tested on: Endothelial cells derived from human umbilical vein (HUVEC); test: Inhibitory effect of growth of endothelial cells (MTT method); assay type: cell-based; conditions: 72 h, incubating for three days
Description: Endothelial cells derived from human umbilical vein (HUVEC; manufactured by Sanko Junyaku) incubated in an EGM medium (manufactured by Sanko Junyaku) containing 100 Units of penicillin and 100 μg/ml of streptomycin were adjusted to 0.8-1×10^4 cells/ml and each 100 μl were separately placed on a 96-well plate. After incubating in a CO2 incubator (5% CO2) at 37 ° C. overnight, 100 μl of EGM medium containing test compound diluted in a three-fold manner were added thereto followed by incubating for three days. The cell numbers at that time were measured by MTT method. That is, 50 μl of phosphate buffer containing 0.33% of 3-(4,5-dimethylthiazol-2-yl)-2,5-diphenyltetrazolium bromide (MTT) was added thereto and incubation was continued for 3-4 hours. Then, after the supernatant liquid of the culture was removed, 100 μl of dimethyl sulfoxide (DMSO) was added to dissolve a formazane which was formed in the cells and the absorbance at the wave length of 540 nm was measured by use of plate reader (manufactured by Corona Denki).
(§1) Inhibiting rate was calculated from the following formula and 50% inhibiting concentration (IC50) was determined for each compound.
Inhibition Rate (%)=(C−T)/C×100
(§2) C: Absorbance when no compound was added
(§3) T: Absorbance when a compound was added

aorta pieces of rat = test: Antiangiogenic effect: capillary formation from rat aorta pieces incubated in collagen; assay type: cell-based; conditions: numbers of capillaries formed around the aorta, 7th day from addition of test compound
Description: The inhibition degree of angiogenesis which was observed when aorta pieces of rat were incubated in collagen was defined as an antiangiogenic effect. That is, the aorta excised from male rat of Sprague-Dawley strain (10-12 weeks age) was washed with a Hanks' solution so that fat tissues around there were removed minutely. The aorta was incised to prepare pieces of 2 mm square and they were allowed to stand in a 24-well plate holding the endothelial cells upside. Then, 500 μl of neutralized Type I collagen (Cell Matrix Type I-A; manufactured by Nitta Gelatin) were poured over each well and allowed to stand at room temperature for about 20 minutes in a clean bench to solidify the gel. After confirming that the gel was solidified, 500 μl of MCDB 131 medium (manufactured by Chlorella Kogyo) were added thereto followed by incubating in a CO2 incubator (5% CO2) at 37° C. On the next day, the culture medium was exchanged with 500 μl of MCDB 131 medium containing the test compound and the incubation was continued. After three days, the medium was again exchanged with 500 μl of MCDB 131 medium containing the test compound and, at the stage of the 7th day from the initiation of addition of the test compound, numbers of capillaries formed around the aorta were counted under a microscope. The solution containing the test compound was prepared in a three-fold dilution system where 10 μg/ml was the highest concentration.
Inhibiting rate was calculated from the following formula and 50% inhibiting concentration (IC50) for each test compound was determined.
(§4) Inhibiting Rate (%)=(C−T)/C^×100
C: Numbers of capillaries when no compound was added
T: Numbers of capillaries when a compound was added

Mouse B16 melanoma cells = test: Inhibitory effect of proliferation of mouse B16 melanoma (MTT method); assay type: cell-based; conditions: 72 h, incubating for 3 days
Description: Mouse B16 melanoma cells incubated in a Dulbecco-modified Eagle medium (DMED; manufactured by Nissui Seiyaku) containing 10% of fetal bovine serum, 100 Units/ml of penicillin and 100 μg/ml of streptomycin were adjusted to 2^×10^4 cells/ml and each 100 μl thereof were separately placed on a 96-well plate. After an incubation was carried out in a CO2 incubator (5% CO2) at 37° C. for one night, then 100 μl of the above culture containing a test compound diluted in a 3-fold series were added thereto followed by incubating for 3 days and the cell numbers at that time were measured by an MTT method. Incidentally, a treatment with a 0.33% MTT solution was carried out for 1-2 hour(s).
as §1, §4, §2, §3

[2] = tested on: HCT 116 cell strain derived from human cancer of the colon; test: Antitumor effect, HCT 116 human colon cancer subcutaneously transplanted to nude mice; assay type: in vivo, nude mice (KSN); conditions: 22nd day
Description: (§5) In the meanwhile, evaluation of an antitumor effect was carried out in accordance with a method of Koyanagi, et al. (Cancer Res., 94, 1702-1706, 1994) using a KP-1 cell strain derived from human pancreatic cancer and an HCT 116 cell strain derived from human cancer of the colon. The above-mentioned human cancer cells (5^×10^6 cells) were subcutaneously transplanted to nude mice (KSN) of 6 to 7 weeks age and, since the stage where it became to the size of about 100 mm^3, administration of the compound of the present invention was started. In the experiments, ten mice were used for a group to which no drug was administered while, in a drug-administered group, five mice were used for each dose. The dose of 50 mg/kg, 100 mg/kg or 200 mg/kg was continuously administered per os two times a day and the size of the tumor on the 22nd day from the beginning of the administration was compared with that in the group to which no drug was administered. The result was 37%, 30% and 11%, respectively in the KP-1 cell strain derived from human pancreatic cancer and 0.2%, 0.3% and 0.0%, respectively in the HCT 116 cell strain derived from human cancer of the colon in the case of a group to which the compound of Example 1 was administered for example.

[3] = tested on: KP-1 cell strain derived from human pancreatic cancer; test: Antitumor effect, KP-1 human pancreatic cancer subcutaneously transplanted to nude mice; assay type: in vivo, nude mice (KSN); conditions: for size of the tumor compared with that in the group to which no drug was administered: 22nd day, KP-1
Description: as §5

[4] = 50 mg/kg per os two times a day
[5] = 100 mg/kg per os two times a day
[6] = 200 mg/kg per os two times a day

| IC50 (aorta pieces of rat) [µg/mL] | IC50 (Mouse B16 melanoma cells) [µg/mL] | Compound | IC50 [1] [µg/mL] | size of the tumor compared with that in the group to which no drug was administered [2, 4] [%] | size of the tumor compared with that in the group to which no drug was administered [2, 5] [%] | size of the tumor compared with that in the group to which no drug was administered [2, 6] [%] | size of the tumor compared with that in the group to which no drug was administered [3, 4] [%] | size of the tumor compared with that in the group to which no drug was administered [3, 5] [%] | size of the tumor compared with that in the group to which no drug was administered [3, 6] [%] | antitumor effect ([3]; overall statement for KP-1 and HCT 116 transplanted nude mice) |
| --- | --- | --- | --- | --- | --- | --- | --- | --- | --- | --- |
| 0.1 (≈ 0.225 µM) | 21 (≈ 47.3 µM) | Cc1cc(NS(=O)(=O)c2ccc(S(N)(=O)=O)cc2)c2[nH]cc(Br)c2c1 [Example 3, N-(3-Bromo-5-methyl-1H-indole-7-yl)-4-sulfamoylbenzenesulfonamide] | 0.62 (≈ 1.4 µM) | – | – | – | – | – | – | – |
| 0.07 (≈ 0.202 µM) | 15 (≈ 43.3 µM) | Cc1ccc(NS(=O)(=O)c2ccc(Cl)nc2)c2[nH]cc(C#N)c12 [Example 2, 6-Chloro-N-(3-cyano-4-methyl-1H-indol-7-yl)-3-pyridinesulfonamide] | 0.12 (≈ 0.346 µM) | – | – | – | – | – | – | – |
| 0.05 (≈ 0.124 µM) | 19 (≈ 47.3 µM) | Nc1ccc(S(=O)(=O)Nc2ccc(Cl)c3c(Br)c[nH]c23)cn1 [Example 8, 6-Amino-N-(3-bromo-4-chloro-1H-indole-7-yl)-3-pyridinesulfonamide] | 0.49 (≈ 1.22 µM) | – | – | – | – | – | – | – |
| 0.1 (≈ 0.249 µM) | 19 (≈ 47.3 µM) | Nc1ccc(S(=O)(=O)Nc2cc(Br)cc3c(Cl)c[nH]c23)cn1 [Example 4, 6-Amino-N-(5-bromo-3-chloro-1H-indole-7-yl)-3-pyridinesulfonamide] | 1.3 (≈ 3.24 µM) | – | – | – | – | – | – | – |
| 0.06 (≈ 0.149 µM) | 23 (≈ 57.1 µM) | Nc1ncc(S(=O)(=O)Nc2ccc(Br)c3c(Cl)c[nH]c23)cn1 [Example 10, 2-Amino-N-(4-bromo-3-chloro-1H-indole-7-yl)-5-pyrimidinesulfonamide] | 0.38 (≈ 0.944 µM) | – | – | – | – | – | – | – |
| 0.06 (≈ 0.159 µM) | 6.5 (≈ 17.3 µM) | N#Cc1ccc(S(=O)(=O)Nc2ccc(Br)c3cc[nH]c23)cc1 [Example 6, N-(4-Bromo-1H-indole-7-yl)-4-cyanobenzenesulfonamide] | 1.2 (≈ 3.19 µM) | – | – | – | – | – | – | – |
| 0.05 (≈ 0.126 µM) | 8.4 (≈ 21.2 µM) | Cc1cc(NS(=O)(=O)c2ccc(C#N)s2)c2[nH]cc(Br)c2c1 [Example 9, N-(3-Bromo-5-methyl-1H-indole-7-yl)-5-cyano-2-thiophenesulfonamide] | 1.6 (≈ 4.04 µM) | – | – | – | – | – | – | – |
| 0.42 (≈ 1.3 µM) | 7.5 (≈ 23.2 µM) | Nc1ccc(S(=O)(=O)Nc2ccc(Cl)c3cc[nH]c23)cn1 [Example 7, 6-Amino-N-(4-chloro-1H-indole-7-yl)-3-pyridinesulfonamide] | 0.98 (≈ 3.04 µM) | – | – | – | – | – | – | – |
| 0.15 (≈ 0.384 µM) | 8.8 (≈ 22.5 µM) | Cc1cc(NS(=O)(=O)c2cccc(C#N)c2)c2[nH]cc(Br)c2c1 [Example 5, N-(3-Bromo-5-methyl-1H-indole-7-yl)-3-cyanobenzenesulfonamide] | 0.98 (≈ 2.51 µM) | – | – | – | – | – | – | – |
| 0.08 (≈ 0.238 µM) | 10 (≈ 29.7 µM) | Cc1ccc(NS(=O)(=O)c2cccc(C#N)c2)c2[nH]cc(C#N)c12 [Example 1, 3-Cyano-N-(3-cyano-4-methyl-1H-indol-7-yl)benzenesulfonamide] | 0.1 (≈ 0.297 µM) | 0.2 | 0.3 | 0.0 | 37 | 30 | 11 | significant antitumor effect |

— patent US6638964B2, “Sulfonamide-containing indole compounds” (Eisai Co., Ltd., priority 1999, dated 2003)
